Reference: paper PMC5918173, “Characterization of Transglutaminase 2 activity inhibitors in monocytes in vitro and their effect in a mouse model for multiple sclerosis” (PLoS ONE, 2018)

What was measured:
[1] = target: T1, TG2-fibronectin (FN42) interaction (Homo sapiens, UniProt P21980); assay: TG2 interaction with fibronectin (FN42) ELISA; type: binding; conditions: 5 and 15 μM, with or without 1 mM CaCl2, Fig 2E, 2F
T1 construct: purchased Zedira
T1 sequence (P21980 1-687): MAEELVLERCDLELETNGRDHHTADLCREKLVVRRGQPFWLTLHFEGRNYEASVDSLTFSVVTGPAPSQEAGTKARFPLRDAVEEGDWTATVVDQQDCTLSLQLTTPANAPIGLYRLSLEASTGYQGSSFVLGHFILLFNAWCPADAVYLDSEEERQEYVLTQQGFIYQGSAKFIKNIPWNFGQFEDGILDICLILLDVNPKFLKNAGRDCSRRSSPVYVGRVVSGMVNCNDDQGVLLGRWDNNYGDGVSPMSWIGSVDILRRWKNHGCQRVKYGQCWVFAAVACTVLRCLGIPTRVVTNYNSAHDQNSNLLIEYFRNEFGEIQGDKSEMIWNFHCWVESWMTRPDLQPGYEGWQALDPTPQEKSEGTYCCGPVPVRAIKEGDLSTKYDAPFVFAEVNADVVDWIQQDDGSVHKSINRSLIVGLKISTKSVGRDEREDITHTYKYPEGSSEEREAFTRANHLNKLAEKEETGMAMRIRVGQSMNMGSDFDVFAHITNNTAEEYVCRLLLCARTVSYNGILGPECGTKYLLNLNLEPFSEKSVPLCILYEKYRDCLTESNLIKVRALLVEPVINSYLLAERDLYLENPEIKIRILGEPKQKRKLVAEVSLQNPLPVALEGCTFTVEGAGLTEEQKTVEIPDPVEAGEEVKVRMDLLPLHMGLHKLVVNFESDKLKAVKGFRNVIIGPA
Procedure: To determine the potential effect of BJJF078 and ERW1041E on the interaction of TG2 with fibronectin, ELISA experiments were performed as described previously. Briefly, 96 well ELISA plates (Nunc, Maxisorp) were coated with 100 μg/ml mouse anti his-tag monoclonal antibody (Roche) in PBS at 4°C overnight. This was followed by simultaneous washing and blocking with 0.5% BSA in PBS (3x 10 min). Per well 50 μl of a 10 nM human recombinant TG2 (his-tagged, Zedira) solution in PBS was added. Into each well (triplicates) either DMSO (control, 1% final concentration) or TG2 inhibitors (BJJF078, ERW1041E, final concentration 5 and 15 μM in 1% DMSO) were added. As a positive control similar concentrations of TG53, a small molecule that inhibits the interaction between TG2 and fibronectin was added (kindly provided by Prof D. Matei, Northwestern University, Chicago, USA). […] After 1 h incubation at RT, 50 μl of 10 nM FN42-biotin solution (kindly provided by Prof D. Matei) was added to the wells. After an additional 1 h incubation at RT and washing steps (3x 10 min) with 0.5% BSA in PBS, 100 μl streptavidin-HRPO conjugate (from kit opr001, Covalab) was added and incubated for 1 h at RT. This was followed by another series of washes and the colour reaction started with 100 μl of 3,3′,5,5′ tetramethylbenzidine substrate (TMB, from kit opr001, Covalab). After sufficient colour development (15 min), the reaction was stopped with 1M HCl and absorbance was measured at 450 nm.

fibronectin assembly = test system: fibronectin assembly; parameters: method as in PMID 26133787, PMID 17099729; conditions: cited from earlier work

Structure (SMILES) | effect on binding of TG2 to fibronectin (FN42) [1] | effect on fibronectin assembly (fibronectin assembly)
COc1ccc(Cl)cc1C(=O)Nc1ccc(Nc2nc(C)cc(N(C)C)n2)cc1 [TG53] | dose-dependent reduction | 
O=C(N[C@@H](Cc1ccc(O)cc1)C(=O)NCC1CC(Br)=NO1)OCc1ccccc1 (some centres unmarked) [KCC009] |  | can interfere with fibronectin assembly
